Test system: rats
Assay: Open field (OF) test in rats, locomotor/exploratory activity
Format: in vivo, rat
Conditions: 5-min session, mean ± SEM
Method: All drugs were dissolved in distilled water immediately before administration in a volume of 2 mL/kg. All the compounds were administered intraperitoneally (i.p.). […] Control animals received vehicle according to the same schedule.
The experiment was performed using Motor Monitor System (Campden Instruments, Ltd., UK) consisted of two SmartFrame Open Field stations (40 × 40 × 38 cm) with 16 × 16 beams, located in sound attenuating chambers and connected to PC software by control chassis. Individual vehicle- or drug-injected animals were gently placed in the center of the station. An automated motor monitor system recorded ambulation (the number of crossings in X and Y axis), the number of rearing episodes, and total distance covered by a rat for 5 min.
The data of behavioral studies were evaluated using two-way analysis of variance (ANOVA) followed by Bonferroni’s post hoc test, p < 0.05 was considered significant.

[1] = 10 mg/kg i.p. (s-citalopram 30 min, moclobemide and bupropion 60 min before test)
[2] = 15 mg/kg i.p. 30 min before test

SMILES: CC(NC(C)(C)C)C(=O)c1cccc(Cl)c1 (centres unmarked) [bupropion]
- Exploratory activity Ambulation X [1]: 284 ± 31
- Exploratory activity Ambulation Y [1]: 301 ± 35
- Exploratory activity Rearings [1]: 83 ± 9
- Exploratory activity Total distance (cm) [1]: 3083 ± 229 cm

SMILES: CN(C)CCCN1c2ccccc2CCc2ccccc21 [imipramine]
- Exploratory activity Ambulation Y [2]: 203 ± 41
- Exploratory activity Rearings [2]: 54 ± 3
- Exploratory activity Total distance (cm) [2]: 2212 ± 332 cm

SMILES: O=C(NCCN1CCOCC1)c1ccc(Cl)cc1 [moclobemide]
- Exploratory activity Ambulation X [1]: 200 ± 26
- Exploratory activity Ambulation Y [1]: 192 ± 23
- Exploratory activity Rearings [1]: 62 ± 3
- Exploratory activity Total distance (cm) [1]: 2160 ± 183 cm

SMILES: CN(C)CCC[C@@]1(c2ccc(F)cc2)OCc2cc(C#N)ccc21 [s-citalopram]
- Exploratory activity Ambulation X [1]: 197 ± 15
- Exploratory activity Ambulation Y [1]: 179 ± 19
- Exploratory activity Rearings [1]: 64 ± 12

Reference: PMC5748433, “Study on the effect of EMD386088, a 5-HT6 receptor partial agonist, in enhancing the anti-immobility action of some antidepressants in rats” (Naunyn-Schmiedeberg's Archives of Pharmacology, 2017)
